Test results published in PubChem BioAssay (NCI).
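Assay format: 96-well plates, 48-hour exposure. The concentration for 50% growth inhibition is given as GI50. TGI denotes the concentration required for complete inhibition of growth.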

Tests used:
Experiment in all cases: NCI tumour cell line growth inhibition, 48 h
SK-MEL-2 melanoma = system: SK-MEL-2 melanoma
OVCAR-5 ovarian = system: OVCAR-5 ovarian
OVCAR-8 ovarian = system: OVCAR-8 ovarian
NCI-H226 lung = system: NCI-H226 lung
HCC-2998 colon = system: HCC-2998 colon
SK-MEL-28 melanoma = system: SK-MEL-28 melanoma
EKVX NSCLC = system: EKVX NSCLC
CAKI-1 renal = system: CAKI-1 renal
SF-539 CNS = system: SF-539 CNS
NCI-H23 lung = system: NCI-H23 lung
HL-60(TB) leukemia = system: HL-60(TB) leukemia
SK-OV-3 ovarian = system: SK-OV-3 ovarian
SF-295 CNS = system: SF-295 CNS
OVCAR-4 ovarian = system: OVCAR-4 ovarian
OVCAR-3 ovarian = system: OVCAR-3 ovarian
COLO 205 colon = system: COLO 205 colon
SR leukemia = system: SR leukemia
A549 NSCLC = system: A549 NSCLC
SNB-19 CNS = system: SNB-19 CNS
NCI-H522 lung = system: NCI-H522 lung
KM12 colon = system: KM12 colon
LOX IMVI melanoma = system: LOX IMVI melanoma
RXF 393 renal = system: RXF 393 renal
HT29 colon = system: HT29 colon
UACC-62 melanoma = system: UACC-62 melanoma
ACHN renal = system: ACHN renal
SN12C renal = system: SN12C renal
PC-3 prostate = system: PC-3 prostate
HCT-15 colon = system: HCT-15 colon
SK-MEL-5 melanoma = system: SK-MEL-5 melanoma
IGROV1 ovarian = system: IGROV1 ovarian
RPMI-8226 leukemia = system: RPMI-8226 leukemia
CCRF-CEM leukemia = system: CCRF-CEM leukemia
HOP-62 NSCLC = system: HOP-62 NSCLC
TK-10 renal = system: TK-10 renal
HS 578T breast = system: HS 578T breast
BT-549 breast = system: BT-549 breast
786-0 renal = system: 786-0 renal
T-47D breast = system: T-47D breast
HOP-92 NSCLC = system: HOP-92 NSCLC
DU-145 prostate = system: DU-145 prostate
M14 melanoma = system: M14 melanoma
U251 CNS = system: U251 CNS
MDA-MB-435 = system: MDA-MB-435
K-562 leukemia = system: K-562 leukemia
MDA-MB-231 breast = system: MDA-MB-231 breast
HCT-116 colon = system: HCT-116 colon
UACC-257 melanoma = system: UACC-257 melanoma
MOLT-4 leukemia = system: MOLT-4 leukemia
MALME-3M melanoma = system: MALME-3M melanoma
SF-268 CNS = system: SF-268 CNS
A498 renal = system: A498 renal
SW-620 colon = system: SW-620 colon
NCI/ADR-RES ovarian = system: NCI/ADR-RES ovarian
UO-31 renal = system: UO-31 renal
NCI-H460 lung = system: NCI-H460 lung
SNB-75 CNS = system: SNB-75 CNS
MCF7 breast = system: MCF7 breast

## NC(CSC(c1ccccc1)(c1ccccc1)c1ccc(Br)cc1)C(=O)O (stereo not given)
SK-MEL-2 melanoma
  GI50: 14.5 µM
  TGI: > 78.2 µM
OVCAR-5 ovarian
  GI50: 5.13 µM
  TGI: > 100 µM
OVCAR-8 ovarian
  GI50: 0.321 µM
  TGI: > 51.7 µM
NCI-H226 lung
  GI50: 11.3 µM
  TGI: 33.4 µM
HCC-2998 colon
  GI50: 0.174 µM
  TGI: 1.5 µM
SK-MEL-28 melanoma
  GI50: 0.366 µM
  TGI: 31.7 µM
EKVX NSCLC
  GI50: 0.707 µM
  TGI: > 100 µM
CAKI-1 renal
  GI50: 0.499 µM
  TGI: > 100 µM
SF-539 CNS
  GI50: 0.11 µM
  TGI: 13.5 µM
NCI-H23 lung
  GI50: 0.438 µM
  TGI: 66.7 µM
HL-60(TB) leukemia
  GI50: 0.412 µM
  TGI: 75.3 µM
SK-OV-3 ovarian
  GI50: 0.162 µM
  TGI: > 72.7 µM
SF-295 CNS
  GI50: 0.0764 µM
  TGI: > 100 µM
OVCAR-4 ovarian
  GI50: 19.9 µM
  TGI: > 100 µM
OVCAR-3 ovarian
  GI50: 0.0942 µM
  TGI: 0.412 µM
COLO 205 colon
  GI50: 0.241 µM
  TGI: 15.2 µM
SR leukemia
  GI50: 1.33 µM
  TGI: > 38.7 µM
A549 NSCLC
  GI50: 0.375 µM
  TGI: > 82.3 µM
SNB-19 CNS
  GI50: 0.296 µM
  TGI: > 76.6 µM
NCI-H522 lung
  GI50: 0.12 µM
  TGI: 22.3 µM
KM12 colon
  GI50: 0.212 µM
  TGI: 12.7 µM
LOX IMVI melanoma
  GI50: 0.659 µM
  TGI: 19.8 µM
RXF 393 renal
  GI50: 0.103 µM
  TGI: > 35.6 µM
HT29 colon
  GI50: 0.399 µM
  TGI: > 54.9 µM
UACC-62 melanoma
  GI50: 0.17 µM
  TGI: 17.4 µM
ACHN renal
  GI50: 11.6 µM
  TGI: > 100 µM
SN12C renal
  GI50: 0.3 µM
  TGI: 49.8 µM
PC-3 prostate
  GI50: 0.17 µM
  TGI: > 77.7 µM
HCT-15 colon
  GI50: 0.258 µM
  TGI: > 82 µM
SK-MEL-5 melanoma
  GI50: 0.0721 µM
  TGI: 12.2 µM
IGROV1 ovarian
  GI50: 0.293 µM
  TGI: 40.8 µM
RPMI-8226 leukemia
  GI50: 0.093 µM
  TGI: 22.6 µM
CCRF-CEM leukemia
  GI50: 0.0941 µM
HOP-62 NSCLC
  GI50: 0.457 µM
  TGI: 21.8 µM
TK-10 renal
  GI50: 14 µM
  TGI: > 100 µM
HS 578T breast
  GI50: 0.0621 µM
  TGI: 0.219 µM
BT-549 breast
  GI50: 0.971 µM
  TGI: > 57 µM
786-0 renal
  GI50: 0.119 µM
  TGI: 1.58 µM
T-47D breast
  GI50: 0.345 µM
  TGI: > 100 µM
HOP-92 NSCLC
  GI50: 2.47 µM
  TGI: 39.6 µM
DU-145 prostate
  GI50: 0.236 µM
  TGI: 0.548 µM
M14 melanoma
  GI50: 0.0318 µM
  TGI: 0.146 µM
U251 CNS
  GI50: 0.0798 µM
  TGI: 25.5 µM
MDA-MB-435
  GI50: 0.0402 µM
  TGI: 0.199 µM
K-562 leukemia
  GI50: 0.311 µM
  TGI: 20.6 µM
MDA-MB-231 breast
  GI50: 0.133 µM
  TGI: 3.92 µM
HCT-116 colon
  GI50: 0.0469 µM
  TGI: 5.71 µM
UACC-257 melanoma
  GI50: 7.44 µM
  TGI: > 72.8 µM
MOLT-4 leukemia
  GI50: 0.651 µM
  TGI: > 82.1 µM
MALME-3M melanoma
  TGI: > 88.6 µM
SF-268 CNS
  GI50: 0.151 µM
  TGI: 22.4 µM
A498 renal
  GI50: 0.259 µM
  TGI: 32.5 µM
SW-620 colon
  GI50: 0.1 µM
  TGI: 27.7 µM
NCI/ADR-RES ovarian
  GI50: 0.976 µM
  TGI: 4.54 µM
UO-31 renal
  GI50: 12.3 µM
  TGI: > 100 µM
NCI-H460 lung
  GI50: 0.175 µM
  TGI: 18.1 µM
SNB-75 CNS
  GI50: 0.729 µM
  TGI: > 50.8 µM
MCF7 breast
  GI50: 0.0573 µM
  TGI: > 51.2 µM

## CCc1cc(Cc2cc(CC)cc(C(C)(C)C)c2O)c(O)c(C(C)(C)C)c1
SK-MEL-2 melanoma
  GI50: 2.63 µM
  TGI: 7.08 µM
OVCAR-5 ovarian
  GI50: 9.69 µM
  TGI: 21.4 µM
OVCAR-8 ovarian
  GI50: 3.45 µM
  TGI: 12.3 µM
NCI-H226 lung
  GI50: 4.88 µM
  TGI: 16.1 µM
HCC-2998 colon
  GI50: 2.42 µM
  TGI: 6.52 µM
SK-MEL-28 melanoma
  GI50: 2.39 µM
  TGI: 7.53 µM
EKVX NSCLC
  GI50: 2.24 µM
  TGI: 6.77 µM
CAKI-1 renal
  GI50: 1.92 µM
  TGI: 5.75 µM
SF-539 CNS
  GI50: 2.51 µM
  TGI: 5.98 µM
NCI-H23 lung
  GI50: 3.33 µM
  TGI: 12.5 µM
HL-60(TB) leukemia
  GI50: 4.42 µM
  TGI: > 100 µM
SK-OV-3 ovarian
  GI50: 3.81 µM
  TGI: 13.2 µM
SF-295 CNS
  GI50: 2.06 µM
  TGI: 4.88 µM
OVCAR-4 ovarian
  GI50: 3.56 µM
  TGI: 12.7 µM
OVCAR-3 ovarian
  GI50: 2.2 µM
  TGI: 5.33 µM
COLO 205 colon
  GI50: 1.89 µM
  TGI: 3.56 µM
SR leukemia
  GI50: 3.28 µM
  TGI: 18.7 µM
A549 NSCLC
  GI50: 3.18 µM
  TGI: 13.2 µM
SNB-19 CNS
  GI50: 3.13 µM
  TGI: 11.8 µM
NCI-H522 lung
  GI50: 2.38 µM
  TGI: 8.29 µM
KM12 colon
  GI50: 2.28 µM
  TGI: 6.35 µM
LOX IMVI melanoma
  GI50: 3.27 µM
  TGI: 12 µM
RXF 393 renal
  GI50: 1.81 µM
  TGI: 4.98 µM
HT29 colon
  GI50: 2.9 µM
  TGI: 11.5 µM
UACC-62 melanoma
  GI50: 2.4 µM
  TGI: 7.85 µM
ACHN renal
  GI50: 3.27 µM
  TGI: 10.4 µM
SN12C renal
  GI50: 3.82 µM
  TGI: 13.7 µM
PC-3 prostate
  GI50: 3.86 µM
  TGI: 14.7 µM
HCT-15 colon
  GI50: 3.13 µM
  TGI: 11 µM
SK-MEL-5 melanoma
  GI50: 3.63 µM
  TGI: 12.7 µM
IGROV1 ovarian
  GI50: 2.53 µM
  TGI: 8.05 µM
RPMI-8226 leukemia
  GI50: 3.35 µM
  TGI: 28.4 µM
CCRF-CEM leukemia
  GI50: 5.16 µM
  TGI: > 100 µM
HOP-62 NSCLC
  GI50: 4.39 µM
  TGI: 17.1 µM
TK-10 renal
  GI50: 3.03 µM
  TGI: 9.41 µM
HS 578T breast
  GI50: 2.59 µM
  TGI: 8.29 µM
BT-549 breast
  GI50: 2.16 µM
  TGI: 7.76 µM
786-0 renal
  GI50: 3.5 µM
  TGI: 14.4 µM
T-47D breast
  GI50: 2.59 µM
  TGI: 7.87 µM
HOP-92 NSCLC
  GI50: 2.25 µM
  TGI: 7.97 µM
DU-145 prostate
  GI50: 3.53 µM
  TGI: 13 µM
M14 melanoma
  GI50: 3.63 µM
  TGI: 14.4 µM
U251 CNS
  GI50: 3.13 µM
  TGI: 11 µM
MDA-MB-435
  GI50: 2.35 µM
  TGI: 7.16 µM
K-562 leukemia
  GI50: 3.37 µM
  TGI: 13.9 µM
MDA-MB-231 breast
  GI50: 1.87 µM
  TGI: 3.92 µM
HCT-116 colon
  GI50: 2.09 µM
  TGI: 5.82 µM
UACC-257 melanoma
  GI50: 2.79 µM
  TGI: 11.6 µM
MOLT-4 leukemia
  GI50: 3.99 µM
  TGI: > 100 µM
MALME-3M melanoma
  GI50: 1.16 µM
  TGI: 3.48 µM
SF-268 CNS
  GI50: 3.4 µM
  TGI: 12.6 µM
A498 renal
  GI50: 1.76 µM
  TGI: 5.39 µM
SW-620 colon
  GI50: 2.25 µM
  TGI: 7.07 µM
NCI/ADR-RES ovarian
  GI50: 3.94 µM
  TGI: 14.7 µM
UO-31 renal
  GI50: 2.79 µM
  TGI: 11.7 µM
NCI-H460 lung
  GI50: 2.59 µM
  TGI: 6.98 µM
SNB-75 CNS
  GI50: 3.37 µM
  TGI: 14.1 µM
MCF7 breast
  GI50: 2.49 µM
  TGI: 7.74 µM
